Key:
[1] = system: CCRF-CEM; experiment: NCI-60 SRB screen; assay type: cell-based; settings: Homo sapiens, single dose 10^−5 M, read-out: Growth inhibition (%)
[2] = system: HL-60(TB); experiment: NCI-60 SRB screen; assay type: cell-based, human; settings: Homo sapiens; HL-60 (TB); single dose 10^−5 M; read-out: Growth inhibition (%)
[3] = system: K-562; experiment: NCI-60 SRB screen; assay type: cell-based, human; settings: Homo sapiens, K562; K-562; single dose 10^−5 M; read-out: Growth inhibition (%)
[4] = system: MOLT-4; experiment: NCI-60 SRB screen; assay type: cell-based; settings: Homo sapiens; MOLT-4; single dose 10^−5 M; read-out: Growth inhibition (%)
[5] = system: SR; experiment: NCI-60 SRB screen; assay type: cell-based; settings: Homo sapiens, single dose 10^−5 M, read-out: Growth inhibition (%)
[6] = system: A549/ATCC; experiment: NCI-60 SRB screen; assay type: cell-based, human; settings: Homo sapiens, single dose 10^−5 M, read-out: Growth inhibition (%)
[7] = system: EKVX; experiment: NCI-60 SRB screen; assay type: cell-based, human; settings: Homo sapiens, single dose 10^−5 M, read-out: Growth inhibition (%)
[8] = system: HOP-62; experiment: NCI-60 SRB screen; assay type: cell-based, human; settings: Homo sapiens; HOP-62; single dose 10^−5 M; read-out: Growth inhibition (%)
[9] = system: HOP-92; experiment: NCI-60 SRB screen; assay type: cell-based, human; settings: Homo sapiens; HOP-92; single dose 10^−5 M; read-out: Growth inhibition (%)
[10] = system: NCI-H226; experiment: NCI-60 SRB screen; assay type: cell-based, human; settings: Homo sapiens; NCI-H226; single dose 10^−5 M; read-out: Growth inhibition (%)
[11] = system: NCI-H23; experiment: NCI-60 SRB screen; assay type: cell-based, human; settings: Homo sapiens; NCI-H23; single dose 10^−5 M; read-out: Growth inhibition (%)
[12] = system: NCI-H322M; experiment: NCI-60 SRB screen; assay type: cell-based, human; settings: Homo sapiens, single dose 10^−5 M, read-out: Growth inhibition (%)
[13] = system: NCI-H460; experiment: NCI-60 SRB screen; assay type: cell-based, human; settings: Homo sapiens; NCI-H460; single dose 10^−5 M; read-out: Growth inhibition (%)
[14] = system: NCI-H522; experiment: NCI-60 SRB screen; assay type: cell-based, human; settings: Homo sapiens; NCI-H522; single dose 10^−5 M; read-out: Growth inhibition (%)
[15] = system: COLO 205; experiment: NCI-60 SRB screen; assay type: cell-based, human; settings: Homo sapiens; COLO 205; single dose 10^−5 M; read-out: Growth inhibition (%)
[16] = system: HCC-2998; experiment: NCI-60 SRB screen; assay type: cell-based, human; settings: Homo sapiens; HCC-2998; single dose 10^−5 M; read-out: Growth inhibition (%)
[17] = system: HCT-116; experiment: NCI-60 SRB screen; assay type: cell-based, human; settings: Homo sapiens; HCT-116; single dose 10^−5 M; read-out: Growth inhibition (%)
[18] = system: HCT-15; experiment: NCI-60 SRB screen; assay type: cell-based, human; settings: Homo sapiens; HCT-15; single dose 10^−5 M; read-out: Growth inhibition (%)
[19] = system: HT-29; experiment: NCI-60 SRB screen; assay type: cell-based; settings: Homo sapiens; HT-29; single dose 10^−5 M; read-out: Growth inhibition (%)
[20] = system: KM12; experiment: NCI-60 SRB screen; assay type: cell-based, human; settings: Homo sapiens; KM12; single dose 10^−5 M; read-out: Growth inhibition (%)
[21] = system: SW-620; experiment: NCI-60 SRB screen; assay type: cell-based; settings: Homo sapiens; SW-620; single dose 10^−5 M; read-out: Growth inhibition (%)
[22] = system: SF-268; experiment: NCI-60 SRB screen; assay type: cell-based, human; settings: Homo sapiens; SF-268; single dose 10^−5 M; read-out: Growth inhibition (%)
[23] = system: SF-295; experiment: NCI-60 SRB screen; assay type: cell-based, human; settings: Homo sapiens; SF-295; single dose 10^−5 M; read-out: Growth inhibition (%)
[24] = system: LOX IMVI; experiment: NCI-60 SRB screen; assay type: cell-based, human; settings: Homo sapiens, single dose 10^−5 M, read-out: Growth inhibition (%)
[25] = system: MALME-3M; experiment: NCI-60 SRB screen; assay type: cell-based, human; settings: Homo sapiens, single dose 10^−5 M, read-out: Growth inhibition (%)
[26] = system: M14; experiment: NCI-60 SRB screen; assay type: cell-based, human; settings: Homo sapiens; M14; single dose 10^−5 M; read-out: Growth inhibition (%)
[27] = system: MDA-MB-435; experiment: NCI-60 SRB screen; assay type: cell-based; settings: Homo sapiens, MDA-MB-435, read-out: Growth inhibition (%)
[28] = system: SK-MEL-2; experiment: NCI-60 SRB screen; assay type: cell-based, human; settings: Homo sapiens; SK-MEL-2; single dose 10^−5 M; read-out: Growth inhibition (%)
[29] = system: SK-MEL-28; experiment: NCI-60 SRB screen; assay type: cell-based; settings: Homo sapiens; SK-MEL-28; single dose 10^−5 M; read-out: Growth inhibition (%)
[30] = system: SK-MEL-5; experiment: NCI-60 SRB screen; assay type: cell-based, human; settings: Homo sapiens; SK-MEL-5; single dose 10^−5 M; read-out: Growth inhibition (%)
[31] = system: UACC-257; experiment: NCI-60 SRB screen; assay type: cell-based, human; settings: Homo sapiens, UACC-257; UACC-275 (so in the source); single dose 10^−5 M; read-out: Growth inhibition (%)
[32] = system: UACC-62; experiment: NCI-60 SRB screen; assay type: cell-based, human; settings: Homo sapiens; UACC-62; single dose 10^−5 M; read-out: Growth inhibition (%)
[33] = system: IGROV1; experiment: NCI-60 SRB screen; assay type: cell-based, human; settings: Homo sapiens, IGROV-1; IGROV1; single dose 10^−5 M; read-out: Growth inhibition (%)
[34] = system: OVCAR-3; experiment: NCI-60 SRB screen; assay type: cell-based, human; settings: Homo sapiens; OVCAR-3; single dose 10^−5 M; read-out: Growth inhibition (%)
[35] = system: OVCAR-4; experiment: NCI-60 SRB screen; assay type: cell-based, human; settings: Homo sapiens; OVCAR-4; single dose 10^−5 M; read-out: Growth inhibition (%)
[36] = system: NCI/ADR-RES; experiment: NCI-60 SRB screen; assay type: cell-based, human; settings: Homo sapiens, single dose 10^−5 M, read-out: Growth inhibition (%)
[37] = system: SK-OV-3; experiment: NCI-60 SRB screen; assay type: cell-based, human; settings: Homo sapiens; SK-OV-3; single dose 10^−5 M; read-out: Growth inhibition (%)
[38] = system: 786-0; experiment: NCI-60 SRB screen; assay type: cell-based; settings: Homo sapiens; 786-0; single dose 10^−5 M; read-out: Growth inhibition (%)
[39] = system: ACHN; experiment: NCI-60 SRB screen; assay type: cell-based; settings: Homo sapiens, single dose 10^−5 M, read-out: Growth inhibition (%)
[40] = system: CAKI-1; experiment: NCI-60 SRB screen; assay type: cell-based, human; settings: Homo sapiens; CAKI-1; single dose 10^−5 M; read-out: Growth inhibition (%)
[41] = system: RXF 393; experiment: NCI-60 SRB screen; assay type: cell-based, human; settings: Homo sapiens; RXF 393; single dose 10^−5 M; read-out: Growth inhibition (%)
[42] = system: SN12C; experiment: NCI-60 SRB screen; assay type: cell-based, human; settings: Homo sapiens, SN12C; SN 12 C; single dose 10^−5 M; read-out: Growth inhibition (%)
[43] = system: TK-10; experiment: NCI-60 SRB screen; assay type: cell-based, human; settings: Homo sapiens; TK-10; single dose 10^−5 M; read-out: Growth inhibition (%)
[44] = system: UO-31; experiment: NCI-60 SRB screen; assay type: cell-based, human; settings: Homo sapiens; UO-31; single dose 10^−5 M; read-out: Growth inhibition (%)
[45] = system: panel of 60 cancer cell lines; experiment: NCI-60 SRB screen, mean or range over the panel; assay type: cell-based, human; settings: Homo sapiens; mean over the cell lines; single dose 10^−5 M; read-out: Mean growth inhibition (%)

COc1ccc(C=C2Sc3c(F)cccc3C2=O)c(OC)c1 [Compound 2a, 2-(2,4-Dimethoxybenzylidene)-7-fluoro[1]benzothiophen-3(2H)-one]
inhibition at 10 µM [1]: -5.14% | inhibition at 10 µM [2]: 11% | inhibition at 10 µM [3]: 4.76% | inhibition at 10 µM [4]: 4.1% | inhibition at 10 µM [5]: 6.3% | inhibition at 10 µM [6]: -7.82% | inhibition at 10 µM [7]: -5.71% | inhibition at 10 µM [8]: 5.99% | inhibition at 10 µM [9]: -8.14% | inhibition at 10 µM [10]: 0.31% | inhibition at 10 µM [11]: -4.04% | inhibition at 10 µM [12]: 0.25% | inhibition at 10 µM [13]: -6.08% | inhibition at 10 µM [14]: 6.14% | inhibition at 10 µM [15]: -16% | inhibition at 10 µM [16]: -12.8% | inhibition at 10 µM [17]: -3.66% | inhibition at 10 µM [18]: -9.73% | inhibition at 10 µM [19]: -9.18% | inhibition at 10 µM [20]: -5.55% | inhibition at 10 µM [21]: -4.67% | inhibition at 10 µM [22]: 4.51% | inhibition at 10 µM [23]: -4.69% | inhibition at 10 µM [24]: -0.02% | inhibition at 10 µM [25]: 4.19% | inhibition at 10 µM [26]: -5.61% | inhibition at 10 µM [27]: -0.27% | inhibition at 10 µM [28]: -17.9% | inhibition at 10 µM [29]: -7.93% | inhibition at 10 µM [30]: -2.91% | inhibition at 10 µM [31]: -15.2% | inhibition at 10 µM [32]: 7.33% | inhibition at 10 µM [33]: 0.46% | inhibition at 10 µM [34]: -7.34% | inhibition at 10 µM [35]: -6.44% | inhibition at 10 µM [36]: -3.61% | inhibition at 10 µM [37]: 6.36% | inhibition at 10 µM [38]: -12.2% | inhibition at 10 µM [39]: -4.06% | inhibition at 10 µM [40]: 11.9% | inhibition at 10 µM [41]: -27.9% | inhibition at 10 µM [42]: -0.73% | inhibition at 10 µM [43]: -34.9% | inhibition at 10 µM [44]: 25% | inhibition at 10 µM [45]: -3.74%

O=C1C(=Cc2ccccc2[N+](=O)[O-])Sc2c(F)cccc21 [Compound 2c, 7-Fluoro-2-(2-nitrobenzylidene)[1]benzothiophen-3(2H)-one]
inhibition at 10 µM [1]: 26.3% | inhibition at 10 µM [2]: 28.8% | inhibition at 10 µM [3]: 67.8% | inhibition at 10 µM [4]: 19.8% | inhibition at 10 µM [5]: 37.2% | inhibition at 10 µM [6]: 4.91% | inhibition at 10 µM [7]: 15.6% | inhibition at 10 µM [8]: 20.4% | inhibition at 10 µM [9]: -11.4% | inhibition at 10 µM [10]: 23.5% | inhibition at 10 µM [11]: 13.3% | inhibition at 10 µM [12]: 1.98% | inhibition at 10 µM [13]: 59.2% | inhibition at 10 µM [14]: 2.94% | inhibition at 10 µM [15]: -6.61% | inhibition at 10 µM [16]: -11.4% | inhibition at 10 µM [17]: 80.5% | inhibition at 10 µM [18]: -1.05% | inhibition at 10 µM [19]: -7.17% | inhibition at 10 µM [20]: 3.27% | inhibition at 10 µM [21]: 68.8% | inhibition at 10 µM [22]: 5.43% | inhibition at 10 µM [23]: 27% | inhibition at 10 µM [24]: 11.1% | inhibition at 10 µM [25]: 12.6% | inhibition at 10 µM [26]: -1.11% | inhibition at 10 µM [27]: -12.1% | inhibition at 10 µM [28]: -9.11% | inhibition at 10 µM [29]: -4.83% | inhibition at 10 µM [30]: 8.44% | inhibition at 10 µM [31]: 78.8% | inhibition at 10 µM [32]: 60.9% | inhibition at 10 µM [33]: 66.5% | inhibition at 10 µM [34]: 70.8% | inhibition at 10 µM [35]: 40.5% | inhibition at 10 µM [36]: 13.5% | inhibition at 10 µM [37]: 2.42% | inhibition at 10 µM [38]: -11% | inhibition at 10 µM [39]: 7.28% | inhibition at 10 µM [40]: 85.1% | inhibition at 10 µM [41]: -3.1% | inhibition at 10 µM [42]: 7.57% | inhibition at 10 µM [43]: -30.9% | inhibition at 10 µM [44]: 29.9% | inhibition at 10 µM [45]: 11.5%
